Test system: porcine abdominal aortas
Experiment: opening angle experiment on porcine abdominal aortic rings
Conditions: for statistical analysis of opening angles (ANOVA): Example 13, 50-fold dilution (0.05 mM; Glutaraldehyde 0.5% in PBS, pH 7.4), n=9 rings
Experimental: In this study, compounds of this disclosure were added to abdominal aortas in an opening angle experiment to determine how they would affect the aorta in vitro. Thus, to understand the ability of the compounds of this disclosure to bind to aortic elastin and determine their ability to affect the aorta and aneurysms.
Twelve porcine abdominal aortas were ordered and received. The infra-renal sections of these aortas were dissected, cleaned, rinsed, and then cut into rings measuring 3 mm in width. […] These rings were mixed up before testing to randomize them based on their location in the artery. They were then stored in 500 ml of saline. Analog solutions were prepared at the same molar concentration, but they were not normalized for gallic acid content as indicated in Table 1. These solutions of analogs were made using a solution containing about 26% iopamidol, a radioopaque contrast agent. […] All solutions were prepared one day prior to their use. […] For each solution, 6 aortic rings were placed in a pre-labeled 50 ml conical tube containing 20 ml of the solution, resulting in a volume to tissue ratio of approximately 3.3 ml of solution per ring. The tubes were then incubated at room temperature for 3 hours, with rotation every 30-40 minutes.
After the treatment, while still in the tube, the solution was decanted, and the rings were rinsed three times in PBS and then suspended in PBS. The rings were placed in a 6-well plate, with 2 rings per well and 3 ml of PBS in each well. Each ring was opened with a single cut using fine scissors and laid back in the well. The rings were allowed 15 minutes to recoil in the PBS at room temperature, with gentle shaking every 5 minutes.
Photographs of the rings were taken, and their opening angles were measured using Image J software. The data were then plotted and statistical analyses were performed for comparison.
All solutions were prepared one day prior to their use.
For this experiment, nine aortic rings were placed in 30 ml of a pre-prepared solution within a 50 ml conical tube. […] The tubes were then incubated at room temperature for 3 hours, with rotations occurring every 30-40 minutes. After the incubation period, while still in the tubes, the solution was poured off, and the rings were rinsed three times with PBS and then left suspended in PBS. The rings were then transferred to a 6-well plate, with 2 rings per well and 3-4 ml of PBS in each well. Each ring was opened with a single cut using fine scissors and laid flat in the well. They were allowed to recoil for 15 minutes in PBS at room temperature, with gentle shaking every 5 minutes. Photographs were taken, and the opening angle was measured using the Image J software.

Molecule | statistical analysis of opening angles (ANOVA) | statistical comparison of mean opening angles among analogs (FIG. 3) (Example 12, 2.49 mM, n=6 rings) | variability of opening angles relative to control samples (Example 12, 2.49 mM, n=6 rings) | also measured
O=CCCCC=O [Glutaraldehyde, reference compound] | significantly different from all controls and analogs |  |  | 
O=C(OC[C@H]1O[C@@H](OC(=O)c2cc(O)c(O)c(O)c2)[C@H](OC(=O)c2cc(O)c(O)c(O)c2)[C@@H]1OC(=O)c1cc(O)c(O)c(O)c1)c1cc(O)c(O)c(O)c1 [TG-ribose, polygalloyl ribose] |  | statistically significant lower opening angles |  | 
O=C(OC[C@@H]1O[C@@H](OC(=O)c2cc(O)c(O)c(O)c2)[C@H](OC(=O)c2cc(O)c(O)c(O)c2)[C@@H](OC(=O)c2cc(O)c(O)c(O)c2)[C@H]1OC(=O)c1cc(O)c(O)c(O)c1)c1cc(O)c(O)c(O)c1 [α-PGG, pentagalloyl α-glucose] |  | not statistically different |  | 
O=C(OC[C@H]1O[C@@H](OC(=O)c2cc(O)c(O)c(O)c2)[C@H](OC(=O)c2cc(O)c(O)c(O)c2)[C@@H](OC(=O)c2cc(O)c(O)c(O)c2)[C@@H]1OC(=O)c1cc(O)c(O)c(O)c1)c1cc(O)c(O)c(O)c1 [β-PGG, pentagalloyl β-glucose, reference compound] | significantly different from all controls and analogs | not statistically different |  | 
polygalloyl maltose [OG-maltose] |  |  | substantially reduced | opening angle compared to the PBS subgroup (statistics) (Example 12, 2.49 mM, n=6 rings): statistically significant differences, except for OG-maltose
polygalloyl-sucrose [OG-sucrose] |  |  | substantially reduced | 
